According to PubChem BioAssay (NCI):
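Five concentrations, 48 hours, 96-well plates. At the GI50, growth is halved. At the TGI there is no net growth.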

Assays:
Experiment in all cases: DTP human tumour cell line panel, 48 h
[1] = system: K-562 leukemia
[2] = system: OVCAR-8 ovarian
[3] = system: RPMI-8226 leukemia
[4] = system: NCI-H460 lung
[5] = system: CAKI-1 renal
[6] = system: SF-295 CNS
[7] = system: NCI-H23 lung
[8] = system: HL-60(TB) leukemia
[9] = system: HCT-15 colon
[10] = system: LOX IMVI melanoma

| Compound | TGI [1] | TGI [2] | TGI [3] | TGI [4] | TGI [5] | TGI [6] | TGI [7] | TGI [8] | TGI [9] | TGI [10] | GI50 [1] | GI50 [2] | GI50 [3] | GI50 [4] | GI50 [5] | GI50 [6] | GI50 [7] | GI50 [8] | GI50 [9] | GI50 [10] |
| --- | --- | --- | --- | --- | --- | --- | --- | --- | --- | --- | --- | --- | --- | --- | --- | --- | --- | --- | --- | --- |
| Cc1cccc2nc3c(C(=O)NCCN(C)C)cccc3cc12 | 8.22 µM | 6.58 µM | 4.19 µM | 4.18 µM | 8.49 µM | 4.65 µM | 5.02 µM | 3.37 µM | 6.68 µM | 4.76 µM | – | – | – | – | – | – | – | – | – | – |
| CNC(=O)OC(C)CN1c2ccccc2Sc2ccc(Cl)cc21 (stereo unspecified) | > 10 µM | > 10 µM | > 10 µM | > 10 µM | > 10 µM | > 10 µM | > 10 µM | > 10 µM | > 10 µM | > 10 µM | – | – | – | – | – | – | – | – | – | – |
| CCS(=O)(=O)Nc1ccc(Nc2c3ccccc3nc3ccccc23)c(OC)c1 | 14.6 µM | 7.71 µM | 8.24 µM | 1.19 µM | 4.08 µM | 3.34 µM | 3.79 µM | 0.13 µM | 5.11 µM | 4.26 µM | – | – | – | – | – | – | – | – | – | – |
| COc1cc(C2C(C(=O)O)=C(CO)Oc3cc4c(cc32)OCO4)cc(OC)c1O (stereo unspecified) | > 100 µM | > 100 µM | > 100 µM | > 100 µM | > 100 µM | > 100 µM | – | > 100 µM | > 100 µM | > 100 µM | – | – | – | – | – | – | – | – | – | – |
| CCOC(=O)CSc1nc(N)c2c(-c3ccc(OC)c(OC)c3)c3c(nc2n1)CCCC3 | > 100 µM | 87.4 µM | > 100 µM | > 100 µM | > 100 µM | > 100 µM | > 100 µM | > 100 µM | > 100 µM | > 100 µM | – | – | – | – | – | – | – | – | – | – |
| CC1SC(c2ccccc2)N(CCc2cccs2)C1=O (stereo unspecified) | > 100 µM | 31.2 µM | 8.07 µM | 14.7 µM | 16.2 µM | 15.7 µM | 15.1 µM | 8.67 µM | 18.8 µM | 13.7 µM | 3.94 µM | 4.72 µM | 2.44 µM | 3.55 µM | 3.15 µM | 3.35 µM | 3.23 µM | 2.85 µM | 3.86 µM | 2.9 µM |
| COc1ccc2nc(-c3ccc(-c4noc(-c5cc(OC)c(OC)c(OC)c5)n4)cc3)[nH]c2c1 | > 100 µM | 26.4 µM | > 100 µM | 22.5 µM | 54.9 µM | 38.3 µM | 20 µM | 81.7 µM | 13.3 µM | 34.6 µM | 1.2 µM | 4.93 µM | 6.02 µM | 4.6 µM | 23.4 µM | 15 µM | 4.1 µM | 20.2 µM | 1.49 µM | 13.3 µM |
| CCOC(=O)c1nc2ccc(Cl)cc2c2c1Cc1ccccc1-2 | > 100 µM | > 100 µM | > 100 µM | – | > 100 µM | > 100 µM | > 100 µM | – | > 100 µM | > 100 µM | – | – | – | – | – | – | – | – | – | – |
| CC(=O)Nc1cc([As](=O)(O)O)ccc1O | > 100 µM | > 100 µM | > 100 µM | > 100 µM | > 100 µM | > 100 µM | > 100 µM | > 100 µM | > 100 µM | > 100 µM | – | – | – | – | – | – | – | – | – | – |
| CN(C)CC(=O)Nc1ccc(Cn2nnc3c2C(=O)c2nnn(Cc4ccc(NC(=O)CN(C)C)cc4)c2C3=O)cc1 | > 100 µM | 0.679 µM | 0.783 µM | 1.2 µM | > 100 µM | – | 0.488 µM | 0.5 µM | – | – | 0.293 µM | 0.228 µM | 0.225 µM | 0.167 µM | 2.59 µM | – | 0.192 µM | 0.074 µM | – | – |
| COc1ccc(/C(=C2/O[C@@H]([C@H]3COC(C)(C)O3)[C@H]3OC(C)(C)O[C@@H]23)c2cc(OC)c(OC)c(OC)c2)cc1O | > 100 µM | > 100 µM | 34 µM | > 100 µM | 42.2 µM | 43.9 µM | 74.9 µM | 56.8 µM | 39.7 µM | 22.8 µM | 6.28 µM | 8.56 µM | 4.82 µM | 29.3 µM | 14.8 µM | 18.7 µM | 21.8 µM | 6.48 µM | 4.06 µM | 5.93 µM |
| CN1CC[C@@]2(c3cccc(O)c3)CC(=O)/C(=C/c3ccccc3)[C@H]1C2 | 6.52 µM | > 48 µM | 7.04 µM | 18.7 µM | 15.4 µM | 23.8 µM | 46.4 µM | 7.73 µM | 41.2 µM | 3.46 µM | – | – | – | – | – | – | – | – | – | – |
| COc1ccc2nc(N/N=C/C(C)=N/Nc3cc(C)c4cc(OC)ccc4n3)cc(C)c2c1 | 9.81 µM | 39.5 µM | 19.2 µM | 32.5 µM | 76.1 µM | 42.8 µM | 48.9 µM | 40.6 µM | 25.1 µM | 54.8 µM | – | – | – | – | – | – | – | – | – | – |
